{
  "source": "patent US7576071B2",
  "about": "“Antithrombotic compound” (sanofi-aventis, priority 2004, dated 2009)",
  "key": {"[1]": {"system": "washed human platelets, TRAP-induced aggregation", "assay": "In vitro test for inhibition of human platelet aggregation induced by TRAP", "assay_type": "cell-based", "conditions": "Platelet", "description": "I.b. In vitro Test for Inhibition of Human Platelet Aggregation Induced by TRAP\nIntroduction: Addition of trombin receptor agonist peptide (TRAP) to washed human platelets (WPL) in vitro induces platelet aggregation. This aggregation can be determined by measuring the optical density of the WPL. The in vitro test described here is used to analyze the activity of a test compound to inhibit TRAP-induced aggregation of human platelets. A micro plate reader is used to measure the activity of several compounds simultaneously.\n(§1) An alternative vehicle is 0.9% NaCl in MQ H2O. The compound solution (either in MQ H2O or 0.9% NaCl in MQ H2O) is further diluted in 0.9% NaCl in MQ H2O.\nFree-flowing blood (at least 100 mL) is taken from a healthy volunteer and collected in 0.1 volume 3.8% sodium citrate. 2H2O in MQ H2O (w/v). The final concentration is 0.38% sodium citrate. The citrated blood is centrifuged at 1,600 N/kg (160 g) in Hettich Rotanta/AP centrifuge (750 rpm) at RT. After 15 min, centrifugation is discontinued with the brake turned off and the supernatant (=PRP) is collected. • 2. Washed platelets (WPL):\nAfter adding freshly made 1 μL PGI2 solution per ml PRP, the suspension is centrifuged at 13,500 N/kg (1,350 g) for 10 min in a Hettich Rotanta/AP centrifuge (i.e., 2,800 rpm) at RT. After gentle resuspension of the pellet in the same volume of fresh Watson buffer containing 5 ng/mL PGI2, the suspension is centrifuged at 1,350 g (2,800 rpm) for 10 min at RT again. The final platelet pellet is resuspended in Watson buffer to give approx. 400,000±50,000 platelets/[…]. • 3. Watson buffer:\n134 mM NaCl, 2.9 mM KCl, 12 mM NaHCO3, 0.34 mM Na2HPO4.2H2O, 1 mM MgCl2.6H2O, 5 mM Glucose and 5 mM HEPES in MQ H2O. The pH is adjusted to 7.4 with 1 M NaOH. • 4. Prostaglandin I2 (Sigma, P6188 powder):\nThe PGI2 stock solution of 1 mg/mL in 1 M KOH is stored in aliquots of 100 μL at −20° C. Immediately before use, a solution of 5 μg/mL in ice-cold 0.9% NaCl in MQ H2O is prepared. • 5. Human Fibrinogen (Kordia/ERL, art nr: FIB 2 powder):\n0.5 g fibrinogen powder is dissolved in 50 mL MQ H2O under vacuum. This stock solution is stored in aliquots of 1 mL at −20° C. Before use, a solution of 0.5 mg/mL in saline is prepared.\nBefore use, a solution of 50 μM TRAP in 0.9% NaCl in MQ H2O is prepared. For each test, a fresh solution is made.\n• 1. Sysmex cell counter model KX-21 • 2. Labsystems iEMS reader MF with a 405 nm filter, an orbital shaker set at 1,000 rpm and a constant temperature of 37° C. Absorptions are measured with the Labsystems iEMS program. • 3. Blood collection system 600 mL with needle, art nr P4203 (NPBI) • 4. 96 wells micro plates (Greiner Labortechnik) flat-bottom\nProcedure: The WPL concentration is counted in a Sysmex blood cell counter and the suspension is diluted with Watson buffer to obtain a concentration of 400,000±50,000 plt/μL. Before use, WPL is allowed to stabilize at room temperature for at least 20 min but not longer than 3-4 hours.\nTRAP-induced aggregation: 150 μL WPL is pipetted into a well of a micro plate. 15 μL test compound or vehicle and 15 μL fibrinogen solution is added and the micro plate is placed in the micro plate reader at 37° C. Then, the optical density (OD) is measured at 405 nm and after shaking for 2 min in the reader, the OD405 is measured again to verify the stability of the platelets (absence of spontaneous platelet aggregation). 20 μL of 50 μM TRAP is added and the OD405 is kinetically measured every min for 14 min at 405 nm. Between two measurements, the plate is shaking for 40 seconds at 1,000 rpm (FIG. 1). For determination of the IC50 of a test compound, each test compound is investigated in at least 2 experiments using WPL from different volunteers.\nEvaluation of response: The mean OD of each concentration (including vehicle) is calculated at t=0 min and t=10 min. The percentage inhibition at each concentration is calculated using the formula: […]"}, "[2]": {"system": "human platelets (platelet rich plasma), ADP-induced aggregation", "assay": "In vitro test for inhibition of human platelet aggregation induced by ADP", "assay_type": "cell-based", "conditions": "Platelet", "description": "I.a. In vitro Test for Inhibition of Human Platelet Aggregation Induced by ADP\nAddition of adenosine diphosphate (ADP) to human platelet rich plasma (PRP) in vitro induces platelet aggregation. This aggregation can be assessed by measuring the optical density (OD) of the PRP. The in vitro test described here was used to determine the inhibitory activity of a test compound on the ADP-induced aggregation of human platelets. A micro plate reader is used to measure the activity of several compounds simultaneously.\nas §1\nFree-flowing blood (at least 100 mL) is taken from a healthy volunteer and collected in 0.1 volume 3.8% sodium citrate. 2H2O in distilled H2O (w/v). The final concentration is 0.38% sodium citrate.\nThe citrated blood is centrifuged at 1,600 N/kg (160 g) at RT. After 15 min, centrifugation is discontinued with the brake turned off and the supernatant (=PRP) is collected. • 2. ADP (Kordia/Chrono-par # 384). Before use, a solution of 50 μM in 0.9% NaCl is prepared. Equipment • 1. Sysmex blood cell counter model KX-21. • 2. Labsystems iEMS reader MF with a 620 nm filter, an orbital shaker set at 1,000 rpm and a constant temperature of 37° C. Absorption is measured with the Labsystems iEMS program. • 3. Blood collection system 600 mL with needle, art P4203 (NPBI). • 4. 96 wells flat bottom micro plates (Greiner Labortechnik). Procedure\nThe platelets in the supernatant (PRP) are counted using a Sysmex blood cell counter and the supernatant is diluted with PPP to obtain a PRP containing 400,000±50,000 plt/μL. PRP should stabilize at RT for at least 20 min but not longer than 3 h.\n150 μL PRP is pipetted into a well of the micro plate. 30 μL test compound in a range of concentrations (7 concentrations per compound) or vehicle is added and the micro plate is placed in the Labsystems iEMS reader MF at 37° C. The optical density (OD620) is then measured at 620 nm. After shaking for 2 min in the reader (1,000 rpm), the OD is measured for the second time. This is to verify the stability of the platelets (absence of spontaneous platelet aggregation). Then, 20 μL of 50 μM ADP solution is added and the OD is kinetically measured every min for 14 min at 620 nm (FIG. 1). Between two measurements, the plate is shaking for 40 seconds at 1,000 rpm. Each test compound is investigated in at least 2 experiments using PRP from different volunteers.\nThe mean OD at each compound concentration (including vehicle) is calculated at t=0 min and t=10 min. The percentage inhibition at each concentration is calculated using the formula: […]\nThe IC50 of the test compound is the concentration of the test compound at which the ADP-induced platelet aggregation is reduced by 50%. For this, the percentage inhibition values are plotted against compound concentration. Then, IC50, nH (Hill slope) and efficacy of the test compound is calculated using Graphpad Prism 3.0 (with variable slope).\nReference: Salmon, D. M. (1996) Thrombosis Research 84, 213-216."}, "[3]": {"conditions": "5 μM TRAP, washed human platelets, mean of n experiments, entries marked b measured with a Chronolog aggregometer, others with micro plate reader, read-out: Inhibition of TRAP (5 μM)-induced human platelet aggregation (IC50), mean"}, "[4]": {"conditions": "5 μM ADP, human PRP, mean of n experiments, entries marked b measured with a Chronolog aggregometer, others with micro plate reader, read-out: Inhibition of ADP-induced (5 μM) human platelet aggregation (IC50), mean"}},
  "note": "Read-outs that look alike come from different tables or passages of the source.",
  "data": [
    {"smiles": "O=C(O)C[C@H](NC(=O)[C@@H]1CCCN(C(=O)CCC2CCNCC2)C1)C(=O)O", "note": "[Compound VI, {N-3-[4-piperidinepropionyl]-(R)-(−)-nipecotyl}-L-aspartate]", "values": [
      {"measurement": "IC50", "setting": "[1]; [3]", "result": 6290, "unit": "nM"},
      {"measurement": "IC50", "setting": "[2]; [4]", "result": 22600, "unit": "nM"}
    ]},
    {"smiles": "CC(C)(C)OC(=O)COCCOCCOCCOCCNC(=O)[C@H](Cc1ccccc1)NC(=O)[C@H](CC(=O)O)NC(=O)CCNC(=O)c1ccc(C(=N)N)cc1", "note": "[Compound I, tert-Butyl({N-(4-amidinobenzoyl)-β-alanyl}-L-aspartyl-L-phenylalanyl)-15-aza-3,6,9,12-tetraoxa-pentadecanoate]", "values": [
      {"measurement": "IC50", "setting": "[1]; [3]", "result": 220, "unit": "nM"},
      {"measurement": "IC50", "setting": "[2]; [4]", "result": 610, "unit": "nM"}
    ]},
    {"smiles": "CC(C)(C)OC(=O)COCCOCCOCCOCCNC(=O)[C@H](Cc1ccccc1)NC(=O)[C@H](CC(=O)O)NC(=O)CCC(=O)Nc1ccc(C(=N)N)cc1", "note": "[Compound IV, tert-Butyl N-{(4-benzamidino)-succinamyl}-L-aspartyl-L-phenylalanyl-15-aza-3,6,9,12-tetraoxa-pentadecanoate]", "values": [
      {"measurement": "IC50", "setting": "[1]; [3]", "result": 120, "unit": "nM"},
      {"measurement": "IC50", "setting": "[2]; [4]", "result": 350, "unit": "nM"}
    ]},
    {"smiles": "N=C(N)c1ccc(NC(=O)CCC(=O)N[C@@H](CC(=O)O)C(=O)O)cc1", "note": "[XVIII, reference compound]", "values": [
      {"measurement": "IC50", "setting": "[1]; [3]", "result": 1190, "unit": "nM"},
      {"measurement": "IC50", "setting": "[2]; [4]", "result": 2010, "unit": "nM"}
    ]},
    {"smiles": "CC(C)(C)OC(=O)COCCOCCOCCOCCNC(=O)[C@H](Cc1ccccc1)NC(=O)[C@H](CC(=O)O)NC(=O)[C@@H]1CCCN(C(=O)CCC2CCNCC2)C1", "note": "[IX, tert-Butyl N-{[N-3-(4-piperidinepropionyl)-(R)-(−)-nipecotyl]-L-aspartyl-L-phenylalanyl}-15-aza-3,6,9,12-tetraoxa-pentadecanoate]", "values": [
      {"measurement": "IC50", "setting": "[2]; [4]", "result": 1180, "unit": "nM"}
    ]},
    {"smiles": "CCCCS(=O)(=O)N[C@@H](Cc1ccc(OCCCCC2CCNCC2)cc1)C(=O)O", "note": "[tirofiban, reference compound]", "values": [
      {"measurement": "IC50", "setting": "[1]; Homo sapiens, read-out: IC50, inhibition of human platelet aggregation induced by 5 μM TRAP (reference compound)", "result": "30 to 60", "unit": "nM"},
      {"measurement": "IC50", "setting": "[2]; Homo sapiens, read-out: IC50, inhibition of human platelet aggregation induced by 5 μM ADP (reference compound)", "result": "30 to 60", "unit": "nM"}
    ]},
    {"smiles": "CC(C)(C)OC(=O)COCCOCCOCCOCCNC(=O)[C@H](CC(=O)O)NC(=O)[C@@H]1CCCN(C(=O)CCC2CCNCC2)C1", "note": "[Compound VII, tert-Butyl N-{[N-3-(4-piperidinepropionyl)-(R)-(−)-nipecotyl]-L-aspartyl}-15-aza-3,6,9,12-tetraoxa-pentadecanoate]", "values": [
      {"measurement": "IC50", "setting": "[1]; [3]", "result": 270, "unit": "nM"},
      {"measurement": "IC50", "setting": "[2]; [4]", "result": 380, "unit": "nM"}
    ]},
    {"smiles": "O=C(O)CCNC(=O)[C@@H]1CCCN(C(=O)CCC2CCNCC2)C1", "note": "[XX, reference compound]", "values": [
      {"measurement": "IC50", "setting": "[1]; [3]", "result": 380, "unit": "nM"},
      {"measurement": "IC50", "setting": "[2]; [4]", "result": 310, "unit": "nM"}
    ]},
    {"smiles": "CC(C)(C)OC(=O)COCCOCCOCCOCCNC(=O)[C@H](CC(=O)O)NC(=O)CCC(=O)Nc1ccc(C(=N)N)cc1", "note": "[III, tert-Butyl N-{(4-benzamidino)-succinamyl}-L-aspartyl-15-aza-3,6,9,12-tetraoxa-pentadecanoate]", "values": [
      {"measurement": "IC50", "setting": "[1]; [3]", "result": 250, "unit": "nM"},
      {"measurement": "IC50", "setting": "[2]; [4]", "result": 380, "unit": "nM"}
    ]}
  ]
}
